Source: ChEMBL document CHEMBL4837259, “Comprehensive Approach of 19F Nuclear Magnetic Resonance, Enzymatic, and In Silico Methods for Site-Specific Hit Selection and Validation of Fragment Molecules that Inhibit Methionine γ-Lyase Activity” (J Med Chem, 2021)
Calls of active or inactive are those of the source. No cut-off for these calls is given here.

Legend:
[1] = system: Fusobacterium nucleatum; experiment: Inhibition of Fusobacterium nucleatum ATCC 25586 recombinant MGL K238A mutant expressed in Escherichia coli BL21 (DE3) assessed as decrease in signal intensity by measuring recovery ratio by 19F NMR based competition assay relative to wild type; parameters: concentration or dose not given beside the values
[2] = system: Fusobacterium nucleatum; experiment: Inhibition of Fusobacterium nucleatum ATCC 25586 recombinant MGL Y111F mutant expressed in Escherichia coli BL21 (DE3) assessed as decrease in signal intensity by measuring recovery ratio by 19F NMR based competition assay relative to wild type; parameters: concentration or dose not given beside the values
[3] = system: Fusobacterium nucleatum; experiment: Inhibition of Fusobacterium nucleatum ATCC 25586 recombinant MGL R58A mutant expressed in Escherichia coli BL21 (DE3) assessed as decrease in signal intensity by measuring recovery ratio by 19F NMR based competition assay relative to wild type; parameters: scale not given: the % may be the effect or the level left
[4] = system: Fusobacterium nucleatum; experiment: Inhibition of Fusobacterium nucleatum ATCC 25586 recombinant MGL C113S mutant expressed in Escherichia coli BL21 (DE3) assessed as decrease in signal intensity by measuring recovery ratio by 19F NMR based competition assay relative to wild type; parameters: scale not given: the % may be the effect or the level left
[5] = system: Fusobacterium nucleatum; experiment: Inhibition of Fusobacterium nucleatum ATCC 25586 recombinant MGL R373A mutant expressed in Escherichia coli BL21 (DE3) assessed as decrease in signal intensity by measuring recovery ratio by 19F NMR based competition assay relative to wild type; parameters: scale not given: the % may be the effect or the level left
[6] = target: T1, L-methionine gamma-lyase (Fusobacterium nucleatum subsp. nucleatum) (UniProt Q8RDT4); experiment: Inhibition of Fusobacterium nucleatum ATCC 25586 recombinant wild type MGL expressed in Escherichia coli BL21 (DE3) assessed as decrease in signal intensity by 19F NMR based competition assay relative to control; parameters: concentration or dose not given beside the values
T1 sequence (whole entry): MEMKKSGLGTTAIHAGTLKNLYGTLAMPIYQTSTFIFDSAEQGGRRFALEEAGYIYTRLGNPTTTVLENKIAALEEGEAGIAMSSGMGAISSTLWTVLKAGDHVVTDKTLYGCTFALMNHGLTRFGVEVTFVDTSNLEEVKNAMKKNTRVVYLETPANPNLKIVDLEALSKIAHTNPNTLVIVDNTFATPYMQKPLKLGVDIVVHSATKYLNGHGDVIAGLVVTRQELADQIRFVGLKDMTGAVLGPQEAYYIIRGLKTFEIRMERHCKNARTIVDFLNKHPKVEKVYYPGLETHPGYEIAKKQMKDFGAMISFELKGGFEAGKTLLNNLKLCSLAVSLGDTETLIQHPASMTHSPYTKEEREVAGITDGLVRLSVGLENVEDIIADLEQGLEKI

[7] = system: Fusobacterium nucleatum; experiment: Inhibition of Fusobacterium nucleatum ATCC 25586 recombinant MGL R58K mutant expressed in Escherichia coli BL21 (DE3) assessed as decrease in signal intensity by measuring recovery ratio by 19F NMR based competition assay relative to wild type; parameters: scale not given: the % may be the effect or the level left
[8] = target: T1, L-methionine gamma-lyase (Fusobacterium nucleatum subsp. nucleatum); experiment: Inhibition of Fusobacterium nucleatum ATCC 25586 recombinant wild type MGL expressed in Escherichia coli BL21 (DE3) assessed as formation of 2-ketobutyrate using L-methionine as substrate by enzymatic assay; parameters: concentration or dose not given beside the values; conditions: concentration not given here
[9] = system: Fusobacterium nucleatum; experiment: Inhibition of Fusobacterium nucleatum ATCC 25586 recombinant MGL R373K mutant expressed in Escherichia coli BL21 (DE3) assessed as decrease in signal intensity by measuring recovery ratio by 19F NMR based competition assay relative to wild type; parameters: concentration or dose not given beside the values
[10] = system: Fusobacterium nucleatum; experiment: Inhibition of Fusobacterium nucleatum ATCC 25586 recombinant MGL Y56F mutant expressed in Escherichia coli BL21 (DE3) assessed as decrease in signal intensity by measuring recovery ratio by 19F NMR based competition assay relative to wild type; parameters: concentration or dose not given beside the values

Row | SMILES | Activity [1] | Activity [2] | Activity [3] | Activity [4] | Activity [5] | Activity [6] [%] | Activity [7] [%] | inhibition [8] [%] | Activity [9] | Activity [10]
1 | O=C(O)c1ccc(OC(F)F)nc1 | Active | Active | 50% | Active | 80% | 78 | 50 | 12.6 | Active | 80%
2 | CC(C)(Cc1ccc(C(F)(F)F)cc1)C(=O)O | 80% | 80% | 80% | Active | 50% | 55 | 50 | 8.3 | inactive | 80%
3 | O=C(O)c1cncc(OCC(F)(F)F)c1 | Active | 50% | 80% | inactive | 50% | 35 | 80 | 9.1 | Active | 80%
4 | O=C(O)c1cc(F)c(OCC2CC2)c(F)c1 | Active | 80% | 80% | Active | 80% | 77 | 50 | 9.5 | Active | 80%
5 | CC(C)(C)OC(=O)N1CCC(CN)(Cc2ccc(C(F)(F)F)cc2)CC1 | Active | Active | 50% | 50% | Active | 78 | 50 | 78.3 | Active | 80%
6 | CC(C)(C)OC(=O)N1CCC(C(=O)O)(c2ccc(C(F)(F)F)cc2)CC1 | 50% | Active | Active | 50% | Active | 96 | 50 | 12.9 | Active | 80%
7 | O=C(O)c1cn(-c2ccccc2F)cn1 | inactive | Active | 80% | Active | 50% | 26 | 80 | -5.3 | Active | Active
8 | O=C(O)c1cn(-c2cccc(F)c2)cn1 | inactive | inactive | 80% | Active | 80% | 36 | 80 | -4.1 | inactive | 80%
9 | O=C(O)c1cn(-c2ccc(C(F)(F)F)cc2)cn1 | Active | 50% | 50% | Active | 80% | 87 | 80 | 45.3 | Active | 80%
10 | Cc1ccc2[nH]cc(C(C(=O)O)C(F)(F)F)c2c1 (configuration not stated) | Active | 80% | 80% | inactive | 50% | 48 | 80 | 9.3 | Active | 80%
11 | O=C(O)c1cn(-c2ccc(F)cc2)cn1 | Active | Active | 80% | 50% | 80% | 58 | 80 | 6.2 | Active | Active
12 | CC(C)(C)OC(=O)N[C@H]1CC[C@H](N2Cc3ccc(F)cc3C2=O)CC1 | Active | Active | Active | 50% | Active | 70 | 50 | -1.2 | Active | 50%
13 | O=C(O)c1ccnc(OC(F)F)c1 | Active | Active | 80% | 50% | 80% | 67 | 80 | 1.5 | 50% | 80%
14 | CC(C)(C)OC(=O)N1CCC(CN)(c2ccccc2C(F)(F)F)CC1 | 50% | Active | Active | 50% | Active | 75 | 80 | 41 | Active | 80%
15 | O=C(O)c1cc(C(F)(F)F)nn1-c1ccccc1 | Active | 80% | 80% | 50% | 50% | 49 | 80 | 23.9 | Active | 80%
16 | CC(C)(C)OC(=O)N1CCC(CN)(c2ccc(F)cc2)CC1 | 50% | 50% | 50% | Active | Active | 20 | 50 | 12.9 | Active | 80%
17 | Nc1cc(F)c(OCC2CCC2)c(F)c1 | 50% | Active | Active | 50% | inactive | 55 | 50 | 11.6 | inactive | 80%
18 | O=C(O)c1cc(OC(F)(F)F)ccn1 | Active | 50% | 80% | Active | 80% | 4 | 80 | -6.8 | Active | 80%
19 | Cc1cccc2c(C(C(=O)O)C(F)(F)F)c[nH]c12 (configuration not stated) | 50% | 50% | 80% | inactive | 50% | 44 | 50 | -5.3 | Active | 80%
20 | CC(C)(C)OC(=O)N1CCC(CN)(c2cccc(F)c2)CC1 | Active | Active | Active | Active | inactive | 65 | 80 | 16.1 | Active | 50%
21 | COCCOc1ccc(C(=O)O)cc1C(F)(F)F | Active | 80% | 80% | 50% | 80% | 67 | 80 | 16.2 | 50% | 80%
22 | CC(C)(C)OC(=O)N1CCC(CN)(Cc2ccccc2F)CC1 | inactive | inactive | Active | 80% | inactive | 63 | 50 | 30.1 | Active | 80%
23 | CC(C)(C)OC(=O)N1CCC(CN)(Cc2ccc(F)cc2)CC1 | inactive | inactive | Active | 50% | Active | 70 | 50 | 27.7 | Active | 80%
24 | CC(C)(C)OC(=O)N1CCC(CN)(Cc2ccccc2C(F)(F)F)CC1 | Active | Active | 50% | 80% | Active | 85 | 80 | 56.5 | Active | 80%
25 | Fc1cccc(-c2nnc3ccc(Br)cn23)c1 |  |  |  |  |  | 89 |  | 7.2 |  | 
